From paper PMC10191619, “Bilirubin gates the TRPM2 channel as a direct agonist to exacerbate ischemic brain damage” (Neuron, 2023)

What was measured:
[1] = target: T1, human TRPM2 (hTRPM2) channel (Homo sapiens, UniProt O94759); assay: Whole-cell patch-clamp of TRPM2 currents (voltage ramps) in HEK-hTRPM2 cells; format: cell-based
T1 construct: expressed in transfected cells; host or cells: HEK293 cells with tetracycline-inducible expression of hTRPM2 (HEK-hTRPM2)
Experimental: (§1) Human embryonic kidney 293 (HEK293) cells with tetracycline-inducible expression of human TRPM2 channel (hTRPM2) were cultured in a mixed medium containing DMEM/ F-12 (Gibco, USA) and 10% fetal bovine serum (Gibco, USA) as well as blasticidin (50 μg/ml, Invivogen, USA) and zeocin (0.4 mg/ml, Invivogen, USA). The expression of hTRPM2 was induced by substituting blasticin and zeocin for tetracycline (1 μg/ml, Sigma, USA) 24-48 hours before use. TRPM2 channel mutants were transiently expressed in HEK293T cells by transfection with using Lipofectamine 3000. Briefly, HEK293T cells were transiently transfected with cDNAs encoding the mutant hTRPM2 channel. The cDNA for GFP was co-transfected as a marker for identification of the transfected cells for electrophysiological experiments 16-24 hours after transfection. All the cells were seeded on 96-well coverslips (3 x 3 mm, WHB) and cultured at 37 °C under a humidified atmosphere containing 5% CO2.
Coronal cortical slices were transferred into the recording chamber and continuously perfused at room temperature with ACSF oxygenated with 95% O2 and 5% CO2. Cortical pyramidal neurons were visualized by an upright microscope (Carl Zeiss) equipped with a CCD monochrome video camera (IR-1000, DAGE-MTI) and identified by their localization in Layer V. Electrophysiology data were sampled (50 kHz) and lowpass filtered (5kHz four-pole Bessel filter) by a MultiClamp 700B dual channel amplifier (Molecular Devices). The patch electrodes were pulled from borosilicate capillary glass (1.5 mm outer diameter; 0.86 mm inner diameter; World Precision Instruments, USA) with a horizontal multi-step micropipette puller (Model, P-1000, Sutter Instrument). […] After forming >1 GΩ resistance seal in cell-attached configuration, we broke the patch membrane and kept the neurons at -64 mV and then performed whole-cell current-clamp recordings. Cells requiring holding current > -150 pA at -60 mV were discarded. The resting membrane potential (Vrest) was tested in I = 0 configuration. Intrinsic excitability was tested by 500 ms long current steps between -200 and +400 pA with 50-pA increments in the presence of blockers for AMPA, NMDA, and GABA receptors (APV, 50 μM; NBQX, 10 μM; bicuculine 10 μM, strychnine 1 μM). Only one recording was conducted per brain slice. For whole-cell or single channel recordings from transfected HEK-293T cells, the coverslips were placed in a culture dish (35 × 35 mm, Sorfa) containing HEPES based extracellular solution (ECS) and recorded by patch-clamp technique. Cells were visualized by using the phase-contrast mode of an inverted microscope (TE-2000U; Nikon, Japan) and the patch pipette was positioned on the cells using a motorized micromanipulator (MP-225; Sutter) under the microscope. The transfected cells were voltage-clamped at 0 mV and subjected to voltage ramps from -100 mV to +100 mV (500 ms duration) every 5 s. The basal ramp current (i.e., the trace when the leak current is stable after membrane rupture) before channel activation were used for leak subtraction of all subsequent ramp currents. Each coverslip was recorded only once with different drug exposures. Single-channel recordings were carried out under outside-out configuration, using pipettes with resistance of 6-8 MΩ. The excised patches were voltage-clamped from -80 mV to +80 mV (in 20 mV increasement) to generate the current-voltage (I-V) relationship of single channel currents from which their main conductance was calculated from the slope by linear regression of the mean current amplitude at different potentials. Single-channel recordings of the cortical neurons were performed by adding 4-AP, TEA-Cl, CsCl2 and TTX to block sodium channel, potassium channel and calcium channel.
The cutting solution for brain slices contained the following (in mM): 87 NaCl, 75 sucrose, 2.5 KCl, 10 glucose, 1.25 NaH2PO4, 2 Na-pyruvate, 3 myo-inositol, 0.5 ascorbic acid, 26 NaHCO3,7 MgCl2, and 0.1 CaCl2 (pH 7.4; 290-320 mOsm).

tMCAO Trpm2+/+ mice = assay: tMCAO ischemia model, infarct volume by TTC staining, Trpm2+/+ mice; format: in vivo, mouse; details: for infarct volume: 24 h after tMCAO
[2] = tested on: layer 5 cortical pyramidal neurons from adult Trpm2−/− mice; assay: Whole-cell current-clamp, intrinsic excitability in brain slices, Trpm2-/-; format: cell-based, mouse
[3] = tested on: cortical neurons in adult Trpm2+/+ brain slices; details: bilirubin, 1 h of incubation, n = 6
TRPM2-ΔN/ΔC = target: T2, TRPM2-ΔN/ΔC (Homo sapiens, UniProt O94759); assay: Whole-cell patch-clamp, truncation mutant; format: cell-based; details: bilirubin
T2 construct: expressed in transfected cells; host or cells: HEK293T cells, transient transfection, GFP cDNA co-transfected as a separate marker
Experimental: as §1, with “All the cells were seeded on 96-well coverslips (3 x 3 mm, WHB) and cultured at 37 °C under a humidified atmosphere containing 5% CO2.” left out
(§2) Coronal cortical slices were transferred into the recording chamber and continuously perfused at room temperature with ACSF oxygenated with 95% O2 and 5% CO2. […] For whole-cell or single channel recordings from transfected HEK-293T cells, the coverslips were placed in a culture dish (35 × 35 mm, Sorfa) containing HEPES based extracellular solution (ECS) and recorded by patch-clamp technique. […] Each coverslip was recorded only once with different drug exposures. […]

[4] = target: T1, human TRPM2 (hTRPM2) channel; assay: Single-channel outside-out recordings from HEK-hTRPM2 cells; format: cell-based
Experimental: as §1
Coronal cortical slices were transferred into the recording chamber and continuously perfused at room temperature with ACSF oxygenated with 95% O2 and 5% CO2. Cortical pyramidal neurons were visualized by an upright microscope (Carl Zeiss) equipped with a CCD monochrome video camera (IR-1000, DAGE-MTI) and identified by their localization in Layer V. Electrophysiology data were sampled (50 kHz) and lowpass filtered (5kHz four-pole Bessel filter) by a MultiClamp 700B dual channel amplifier (Molecular Devices). The patch electrodes were pulled from borosilicate capillary glass (1.5 mm outer diameter; 0.86 mm inner diameter; World Precision Instruments, USA) with a horizontal multi-step micropipette puller (Model, P-1000, Sutter Instrument). […] After forming >1 GΩ resistance seal in cell-attached configuration, we broke the patch membrane and kept the neurons at -64 mV and then performed whole-cell current-clamp recordings. Cells requiring holding current > -150 pA at -60 mV were discarded. The resting membrane potential (Vrest) was tested in I = 0 configuration. […] For whole-cell or single channel recordings from transfected HEK-293T cells, the coverslips were placed in a culture dish (35 × 35 mm, Sorfa) containing HEPES based extracellular solution (ECS) and recorded by patch-clamp technique. […] Each coverslip was recorded only once with different drug exposures. […] The excised patches were voltage-clamped from -80 mV to +80 mV (in 20 mV increasement) to generate the current-voltage (I-V) relationship of single channel currents from which their main conductance was calculated from the slope by linear regression of the mean current amplitude at different potentials. […]

[5] = target: T3, hTRPM2 K928A/D1069A double mutant (Homo sapiens, UniProt O94759, D1069A/K928A); assay: Whole-cell patch-clamp, bilirubin-binding cavity double mutant; format: cell-based; details: 9 μM extracellular
T3 construct: expressed in transfected cells; host or cells: HEK293T cells, transient transfection, GFP cDNA co-transfected as a separate marker
Experimental: as §1, with “All the cells were seeded on 96-well coverslips (3 x 3 mm, WHB) and cultured at 37 °C under a humidified atmosphere containing 5% CO2.” left out
as §2

hTRPM2 R1433A = target: T4, hTRPM2 R1433A (Homo sapiens, UniProt O94759, R1433A); assay: Whole-cell patch-clamp, C-terminal NUDT9-H domain mutant; format: cell-based; details: bilirubin
T4 construct: expressed in transfected cells; host or cells: HEK293T cells, transient transfection, GFP cDNA co-transfected as a separate marker
Experimental: as §1, with “All the cells were seeded on 96-well coverslips (3 x 3 mm, WHB) and cultured at 37 °C under a humidified atmosphere containing 5% CO2.” left out
as §2

T1 sequence (O94759 whole entry): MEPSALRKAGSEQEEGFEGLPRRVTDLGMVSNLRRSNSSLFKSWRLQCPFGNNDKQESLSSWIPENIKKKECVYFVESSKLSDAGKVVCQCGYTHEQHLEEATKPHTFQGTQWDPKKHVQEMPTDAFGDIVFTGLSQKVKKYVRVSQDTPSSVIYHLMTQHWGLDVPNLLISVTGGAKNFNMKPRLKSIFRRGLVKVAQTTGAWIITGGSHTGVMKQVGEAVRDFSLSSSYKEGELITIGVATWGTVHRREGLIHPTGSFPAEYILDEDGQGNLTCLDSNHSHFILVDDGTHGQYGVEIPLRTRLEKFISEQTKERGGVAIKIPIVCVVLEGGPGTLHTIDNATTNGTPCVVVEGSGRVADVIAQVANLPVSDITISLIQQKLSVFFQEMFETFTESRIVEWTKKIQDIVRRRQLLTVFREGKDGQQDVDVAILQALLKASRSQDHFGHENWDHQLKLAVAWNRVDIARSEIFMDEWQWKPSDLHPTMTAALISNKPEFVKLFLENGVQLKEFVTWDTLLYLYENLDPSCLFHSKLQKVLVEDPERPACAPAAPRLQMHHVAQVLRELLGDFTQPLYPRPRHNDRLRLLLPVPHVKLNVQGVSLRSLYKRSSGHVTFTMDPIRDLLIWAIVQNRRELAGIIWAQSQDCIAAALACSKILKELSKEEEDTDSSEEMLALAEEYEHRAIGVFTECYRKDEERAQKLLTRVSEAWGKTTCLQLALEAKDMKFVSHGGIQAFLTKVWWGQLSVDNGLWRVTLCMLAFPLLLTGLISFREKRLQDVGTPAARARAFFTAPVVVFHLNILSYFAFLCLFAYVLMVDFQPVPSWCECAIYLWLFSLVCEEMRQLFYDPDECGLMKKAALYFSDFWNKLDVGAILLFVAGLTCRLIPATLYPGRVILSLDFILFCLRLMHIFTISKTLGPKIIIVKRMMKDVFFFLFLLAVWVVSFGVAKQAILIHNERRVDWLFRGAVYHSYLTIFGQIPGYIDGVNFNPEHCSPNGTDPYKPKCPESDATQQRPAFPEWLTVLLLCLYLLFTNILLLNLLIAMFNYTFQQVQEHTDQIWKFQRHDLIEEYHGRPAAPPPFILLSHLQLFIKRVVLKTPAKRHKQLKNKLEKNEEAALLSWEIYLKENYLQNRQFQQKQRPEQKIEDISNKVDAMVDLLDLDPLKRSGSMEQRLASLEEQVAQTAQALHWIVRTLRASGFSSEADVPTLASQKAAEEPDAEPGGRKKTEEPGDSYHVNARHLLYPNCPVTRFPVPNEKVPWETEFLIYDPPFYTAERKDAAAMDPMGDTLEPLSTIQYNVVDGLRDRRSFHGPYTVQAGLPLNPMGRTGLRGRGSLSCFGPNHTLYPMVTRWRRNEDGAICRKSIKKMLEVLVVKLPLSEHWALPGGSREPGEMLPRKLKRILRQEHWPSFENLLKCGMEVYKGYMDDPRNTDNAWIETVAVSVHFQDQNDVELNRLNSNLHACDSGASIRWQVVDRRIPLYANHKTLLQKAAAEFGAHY
T3 sequence (O94759 whole entry K928A/D1069A): as the sequence (O94759 whole entry) above, with K928A, D1069A counted along it
T2 sequence (O94759 1-1449 isoform O94759-2): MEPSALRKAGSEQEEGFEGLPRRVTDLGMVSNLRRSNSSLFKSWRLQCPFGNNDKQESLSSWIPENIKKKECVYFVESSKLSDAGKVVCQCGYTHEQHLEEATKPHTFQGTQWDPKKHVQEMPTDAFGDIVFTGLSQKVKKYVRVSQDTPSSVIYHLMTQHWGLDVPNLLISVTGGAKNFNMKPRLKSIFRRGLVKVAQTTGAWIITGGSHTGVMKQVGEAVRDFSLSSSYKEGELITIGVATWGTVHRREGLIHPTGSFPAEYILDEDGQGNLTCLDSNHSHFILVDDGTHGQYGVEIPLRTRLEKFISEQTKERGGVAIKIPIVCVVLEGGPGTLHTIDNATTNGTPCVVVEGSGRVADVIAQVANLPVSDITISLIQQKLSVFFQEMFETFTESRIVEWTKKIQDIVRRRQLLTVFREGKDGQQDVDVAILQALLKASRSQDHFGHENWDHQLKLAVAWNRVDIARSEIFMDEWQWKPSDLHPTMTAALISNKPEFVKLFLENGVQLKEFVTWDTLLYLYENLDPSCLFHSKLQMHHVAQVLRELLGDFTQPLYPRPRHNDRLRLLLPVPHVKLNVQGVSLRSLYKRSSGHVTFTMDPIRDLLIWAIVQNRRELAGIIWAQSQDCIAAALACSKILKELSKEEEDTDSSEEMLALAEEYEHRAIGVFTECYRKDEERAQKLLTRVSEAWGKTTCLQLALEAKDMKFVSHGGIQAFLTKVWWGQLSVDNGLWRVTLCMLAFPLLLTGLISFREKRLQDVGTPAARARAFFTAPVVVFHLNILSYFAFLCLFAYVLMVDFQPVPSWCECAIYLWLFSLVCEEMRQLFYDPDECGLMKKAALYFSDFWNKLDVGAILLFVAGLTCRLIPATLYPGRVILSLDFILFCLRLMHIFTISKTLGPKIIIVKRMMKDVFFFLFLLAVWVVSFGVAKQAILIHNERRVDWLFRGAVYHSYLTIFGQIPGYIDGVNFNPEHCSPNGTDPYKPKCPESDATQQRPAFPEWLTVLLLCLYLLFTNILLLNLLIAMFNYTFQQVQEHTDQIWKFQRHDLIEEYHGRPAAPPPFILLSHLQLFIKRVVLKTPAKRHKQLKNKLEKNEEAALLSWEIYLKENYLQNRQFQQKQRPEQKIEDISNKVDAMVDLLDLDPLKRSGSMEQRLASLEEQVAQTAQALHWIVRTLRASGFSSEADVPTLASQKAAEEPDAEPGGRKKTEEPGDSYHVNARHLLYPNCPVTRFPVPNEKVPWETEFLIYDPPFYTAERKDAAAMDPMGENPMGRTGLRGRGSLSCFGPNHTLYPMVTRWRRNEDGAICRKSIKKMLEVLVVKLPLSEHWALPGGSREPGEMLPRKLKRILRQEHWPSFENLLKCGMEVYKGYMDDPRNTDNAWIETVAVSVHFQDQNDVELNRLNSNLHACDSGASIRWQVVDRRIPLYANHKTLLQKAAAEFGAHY
T4 sequence (O94759 whole entry R1433A): as the sequence (O94759 whole entry) above, with R1433A counted along it

## C=CC1=C(C)/C(=C/c2[nH]c(Cc3[nH]c(/C=C4\NC(=O)C(C)=C4C=C)c(C)c3CCC(=O)O)c(CCC(=O)O)c2C)NC1=O [bilirubin, Bilirubin]
[1]; bilirubin, intracellular ADPR 500 μM (saturated)
  TRPM2 currents: failed to do so
[1]; bilirubin, intracellular BAPTA 30 mM replacing EGTA
  activation of the TRPM2 channel: remained capable of activating
[1]; concentration-response fit with the Hill equation, n = 4
  Hillslope: 1.0
[1]; concentration-response fit with the Hill equation, n = 4, read-out: EC50 for evoked TRPM2 currents
  EC50: 1920 nM
tMCAO Trpm2+/+ mice; Trpm2+/+ mice, bilirubin 50 μg/g i.p. 30 min prior to 30 min tMCAO, n = 14
  infarct volume: 55.31% ± 3.68%
tMCAO Trpm2+/+ mice; day 7 after tMCAO
  severity of brain damage, Bil group vs Ctrl group: significantly higher
tMCAO Trpm2+/+ mice; female Trpm2+/+ mice, n = 4
  infarct volume: 49.56 ± 7.40%
tMCAO Trpm2+/+ mice; male Trpm2+/+ mice, n = 10
  infarct volume: 57.61 ± 4.24%
[2]; Trpm2−/− slices, bilirubin for 5 and 20 min, synaptic blockers present
  excitability of cortical neurons: absent
[2]; Trpm2−/−, 20 min after bilirubin application, 2.5 nA current in 0.3 ms
  spike amplitude: significantly attenuated
[3]
  mortality of cortical neurons: 60.84% ± 2.13%
TRPM2-ΔN/ΔC
  activation of mutant TRPM2 currents: eliminated the activation of the TRPM2 channel by ADPR but not by bilirubin
[4]; bilirubin 300 nM, at −40 mV, outside-out
  single-channel currents: −2.02 ± 0.05 pA
[4]; bilirubin perfusion, n = 12
  opening probability (Po): significantly increased
[4]; bilirubin-driven current-voltage relationship, −80 to +80 mV, n = 4–7
  slope conductance (single-channel): 76.29 ± 7.85 pS
[5]
  activation of mutant TRPM2 currents: completely lost its ability to activate
hTRPM2 R1433A
  activation of mutant TRPM2 currents: remained responsive
